Assay results: patent publication US20180020662A1, “Substituted 1-cycloalkyl-2-oxotetrahydroquinolin-6-ylsulfonamides or salts thereof and use thereof to increase stress tolerance in plants” (BAYER CROPSCIENCE AKTIENGESELLSCHAFT, priority 2015, published 2018)

What was measured:
Triticum aestivum = assay: Drought stress test on potted crop plants, spray application, visual scoring against stressed control plants; type: in vivo; parameters: key: 0: no positive effect; +: slight positive effect; ++: clear positive effect; +++: strong positive effect; details: mean of at least three repeats
Procedure: (§1) Seeds of monocotyledonous and dicotyledonous crop plants were sown in sandy loam in plastic pots, covered with soil or sand and cultivated in a greenhouse under good growth conditions. The test plants are treated at the early leaf stage (BBCH10-BBCH13). To assure uniform water supply before commencement of stress, the potted plants were supplied with water by dam irrigation prior to substance application. The inventive compounds were first formulated as wettable powders (WP) or dissolved in a solvent mixture. The further dilution was effected with water supplemented with 0.2% wetting agent (e.g. agrotin). The finished spray liquor was sprayed onto the green parts of the plant at an equivalent water application rate of 600 I/ha. Substance application was followed immediately by stress treatment of the plants. Drought stress was induced by gradual drying out under the following conditions: “Day”: 14 hours with illumination at […]. “Night”: 10 hours without illumination at […]. The duration of the respective stress phases was guided mainly by the condition of the stressed control plants. It was ended (by re-irrigating and transfer to a greenhouse with good growth conditions) as soon as irreversible damage was observed on the stressed control plants. The end of the stress phase was followed by an about 4-7-day recovery phase, during which the plants were once again kept under good growth conditions in a greenhouse. The duration of the recovery phase was guided mainly by when the trial plants had attained a state which enabled visual scoring of potential effects, and was therefore variable. Once this juncture had been reached, the appearance of the plants treated with test substances was recorded in comparison to the stressed control plants by the following categories: • 0 no positive effect • + slight positive effect • ++ clear positive effect • +++ strong positive effect In order to rule out any influence on the effects observed by any fungicidal or insecticidal action of the test compounds, it was additionally ensured that the tests proceeded without fungal infection or insect infestation. The values reported in tables A-1 and A-2 below are mean values of the results from at least three repeats. Effects of selected compounds of the general formula (I) under drought stress according to the following tables A-1 and A-2: In the above tables: BRSNS =Brassica napus TRZAS =Triticum aestivum

Brassica napus = assay: as above; type: in vivo; parameters: key: 0: no positive effect; +: slight positive effect; ++: clear positive effect; +++: strong positive effect; details: mean of at least three repeats
Procedure: as §1

[1] = molecular target: T1, phosphatase ABI1 via the co-regulator RCAR11/PYR1 (Arabidopsis thaliana, UniProt O49686+P49597); assay: In vitro assay: inhibition of ABI1 dephosphorylation of 4-methylumbelliferyl phosphate (MUP), fluorescence; type: biochemical; details: concentration of 5 mM of the substance in DMSO and water, 35° C., 20 minutes
T1 sequence (O49686 1-191): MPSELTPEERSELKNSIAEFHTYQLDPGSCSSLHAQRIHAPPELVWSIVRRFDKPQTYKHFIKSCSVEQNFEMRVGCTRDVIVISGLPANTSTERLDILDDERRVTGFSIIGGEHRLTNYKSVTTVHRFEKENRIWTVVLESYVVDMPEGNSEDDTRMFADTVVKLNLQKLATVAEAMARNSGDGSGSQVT
T1 sequence (P49597 1-434): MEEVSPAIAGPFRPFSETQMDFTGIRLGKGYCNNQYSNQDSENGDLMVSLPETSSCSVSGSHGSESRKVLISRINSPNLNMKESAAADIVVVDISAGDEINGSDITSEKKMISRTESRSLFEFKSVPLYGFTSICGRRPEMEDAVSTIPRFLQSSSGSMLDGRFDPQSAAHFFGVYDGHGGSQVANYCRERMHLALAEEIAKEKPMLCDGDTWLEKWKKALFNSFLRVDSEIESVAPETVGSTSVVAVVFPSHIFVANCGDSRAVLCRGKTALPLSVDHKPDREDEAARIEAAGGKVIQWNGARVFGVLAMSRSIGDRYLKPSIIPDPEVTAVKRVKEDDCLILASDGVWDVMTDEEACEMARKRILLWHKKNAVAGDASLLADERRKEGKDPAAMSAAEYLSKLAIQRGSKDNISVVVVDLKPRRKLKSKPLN
Description: Effects of the phytohormone abscisic acid (ABA) on the behavior of plants under abiotic stress and the mechanism of action of ABA are described in the literature (cf. Abrams et al., WO97/23441, Park et al. Science, 2009, 324, 1068; Grill et al. Science, 2009, 324, 1064; Tanokura et al. Biophysics, 2011, 7, 123; Schroeder et al. Plant J. 2010, 61, 290). Therefore, it is possible with the aid of a suitable in vitro test system to derive a correlation between the action of ABA and the stress response of a plant under abiotic stress. In the event of water deficiency (drought stress), plants form the phytohormone abscisic acid (ABA). This binds, along with a co-regulator (Regulatory Component of ABA-Receptor=RCAR according to Grill et al. Science, 2009, 324, 1064 or PYR/PYL according to Cutler et al. Science, 2009, 324, 1068), to a phosphatase (e.g. ABI1, a type 2C protein phosphatase, also abbreviated to PP2C) and inhibits its activity. As a result, a “downstream” kinase (e.g. SnRK2) is no longer dephosphorylated. This kinase, which is thus active, via phosphorylation of transcription factors (e.g. AREB/ABF, cf. Yoshida et al Plant J. 2010, 61, 672), switches on a genetic protection program to increase drought stress tolerance. The assay described hereinafter utilizes the inhibition of the phosphatase ABI1 via the co-regulator RCAR11/PYR1 aus Arabidopsis thaliana. For the determination of activity, the dephosphorylation of 4-methylumbelliferyl phosphate (MUP) was measured at 460 nm. The in vitro assay was conducted in Greiner 384-well PS microplates F-well, using two controls: a) 0.5% dimethyl sulfoxide (DMSO) and b) 5 μM abscisic acid (ABA). The assay described here was generally conducted with substance concentrations of the appropriate chemical test substances in a concentration range of 0.1 μM to 100 μM in a solution of DMSO and water. The substance solution thus obtained, if necessary, was stirred with esterase from porcine liver (EC 3.1.1.1) at room temperature for 3 h and centrifuged at 4000 rpm for 30 min. A total volume of 45 μl was introduced into each cavity of the microplate, having the following composition: • 1) 5 μl of substance solution, i.e. a) DMSO 5% or b) abscisic acid solution or c) the corresponding example compound of the general formula (I) dissolved in 5% DMSO. • 2) 20 μl of enzyme buffer mix, composed of a) 40% by vol. of enzyme buffer (10 ml contain equal proportions by volume of 500 mM Tris-HCl pH 8, 500 mM NaCl, 3.33 mM MnCl2, 40 mM dithiothreitol (DTT)), b) 4% by vol. of ABI1 dilution (protein stock solution was diluted so as to give, after addition, a final concentration in the assay of 0.15 μg ABI1/well), c) 4% by vol. of RCAR11 dilution (enzyme stock was diluted so as to give, on addition of the dilution to the enzyme buffer mix, a final concentration in the assay of 0.30 μg enzyme/well), d) 5% by vol. of Tween20 (1%), e) 47% by vol. H2O bi-dist. • 3) 20 μl of substrate mix, composed of a) 10% by vol. of 500 mM Tris-HCl pH 8, b) 10% by vol. of 500 mM NaCl, c) 10% by vol. of 3.33 mM MnCl2, d) 5% by vol. of 25 mM MUP, 5% by vol. of Tween20 (1%), 60% by vol. of H2O bi-dist.
Enzyme buffer mix and substrate mix were made up 5 minutes prior to the addition and warmed to a temperature of 35° C. On completion of pipetting of all the solutions and on completion of mixing, the plate was incubated at 35° C. for 20 minutes. Finally, a relative fluorescence measurement was made at 35° C. with a BMG Labtech “POLARstar Optima” microplate reader using a 340/10 nm excitation filter and a 460 nm emission filter. The efficacy of the compounds of the general formula (I) is reported in the table which follows using abscisic acid […] as comparative substance (no. 38) according to the following classification: ++++(inhibition ≧90%), +++(90% >inhibition ≧70%), ++(70% >inhibition ≧50%), +(50% >inhibition ≧30%). […]

SMILES | ABI1 inhibition [1] | Effect (TRZAS) (Triticum aestivum; dosage 25 g/ha) | Effect (BRSNS) (Brassica napus; dosage 250 g/ha) | Effect (TRZAS) (Triticum aestivum; dosage 250 g/ha) | Effect (BRSNS) (Brassica napus; dosage 25 g/ha)
CC1(N2C(=O)CCc3cc(NS(=O)(=O)c4ccc(C#N)cc4)ccc32)CC1 [A1-45] |  | + |  |  | 
CC1(N2C(=O)CCc3cc(NS(=O)(=O)Cc4ccc(C#N)cc4)ccc32)CC1 [A1-181] | ++++ (inhibition ≧90%) |  | ++ | + | 
O=C1CCc2cc(NS(=O)(=O)Cc3ccc(F)cc3)ccc2N1C1(C2CC2)CC1 [A3-158] | ++++ (inhibition ≧90%) |  |  | + | 
O=C1CCc2cc(NS(=O)(=O)Cc3ccc(Cl)cc3)ccc2N1C1(C2CC2)CC1 [A3-165] | ++++ (inhibition ≧90%) |  |  | + | 
N#Cc1ccc(S(=O)(=O)Nc2ccc3c(c2)CCC(=O)N3C2CC2C2CC2)cc1 (centres unmarked) [A16-45] |  | + |  |  | ++
CC1CC(N2C(=O)CCc3cc(NS(=O)(=O)Cc4ccc(F)cc4)ccc32)C1 (centres unmarked) [A26-158] | ++++ (inhibition ≧90%) |  |  |  | +
N#Cc1ccc(S(=O)(=O)Nc2ccc3c(c2)CCC(=O)N3C23CC(C2)C3)cc1 [A30-45] |  |  |  | + | 
O=C1CCc2cc(NS(=O)(=O)Cc3ccc(F)cc3)ccc2N1C12CC(C1)C2 [A30-158] | ++++ (inhibition ≧90%) | + |  |  | 
O=C1CCc2cc(NS(=O)(=O)Cc3ccc(Cl)cc3)ccc2N1C1CC1C(F)(F)F (centres unmarked) [A37-165] | +++ (90% >inhibition ≧70%) |  |  | ++ | 
CC1CCC1N1C(=O)CCc2cc(NS(=O)(=O)c3ccc(C#N)cc3)ccc21 (centres unmarked) [A38-45] |  |  |  | + | 
N#Cc1ccc(S(=O)(=O)Nc2ccc3c(c2)CCC(=O)N3C2CC(F)(F)C2)cc1 [A39-45] |  |  |  | ++ | 
CC1=CC(=O)CC(C)(C)[C@@]1(O)/C=C/C(C)=C\C(=O)O [abscisic acid, reference compound] | ++++ (inhibition ≧90%) |  |  |  | 

Now from value to compound, other results behind:

ABI1 inhibition [1] | SMILES | Effect (TRZAS) (Triticum aestivum; dosage 25 g/ha) | Effect (BRSNS) (Brassica napus; dosage 250 g/ha) | Effect (TRZAS) (Triticum aestivum; dosage 250 g/ha) | Effect (BRSNS) (Brassica napus; dosage 25 g/ha)
++++ (inhibition ≧90%) | CC1(N2C(=O)CCc3cc(NS(=O)(=O)Cc4ccc(Cl)cc4)ccc32)CC1 [A1-165, 1-(4-Chlorophenyl)-N-[1-(1-methylcyclopropyl)-2-oxo-1,2,3,4-tetrahydroquinolin-6-yl]methanesulfonamide] |  | ++ | + | 
+++ (90% >inhibition ≧70%) | CC1(N2C(=O)CCc3cc(NS(=O)(=O)Cc4cccc(Cl)c4)ccc32)CC1 [A1-166] |  | ++ |  | 
++++ (inhibition ≧90%) | N#Cc1ccc(CS(=O)(=O)Nc2ccc3c(c2)CCC(=O)N3C2(C3CC3)CC2)cc1 [A3-181] | + |  |  | 
+++ (90% >inhibition ≧70%) | Cc1cccc(CS(=O)(=O)Nc2ccc3c(c2)CCC(=O)N3C23CC(C2)C3)c1 [A30-153] |  | + |  | 
++++ (inhibition ≧90%) | O=C1CCc2cc(NS(=O)(=O)Cc3ccc(Cl)cc3)ccc2N1C12CC(C1)C2 [A30-165] |  |  | ++ | 
+++ (90% >inhibition ≧70%) | N#Cc1ccc(CS(=O)(=O)Nc2ccc3c(c2)CCC(=O)N3C2CC3(CCC3)C2)cc1 [A33-181, 1-(4-Cyanophenyl)-N-[2-oxo-1-(spiro[3.3]hept-2-yl)-1,2,3,4-tetrahydroquinolin-6-yl]methanesulfonamide] |  |  |  | 
